Results as given in PMC13210772, “Dual FLT3/MAPK14 Proteolysis-Targeting Chimera (PROTAC) Induces Potent Acute Myeloid Leukemia Cell Death” (Pharmaceuticals, 2026).

Tests used:
MV4-11 = system: MV4-11; parameters: method as in PMID 30427680, PMID 34959180, PMID 34694800, PMID 36332882, PMID 38655686; details: reported FLT3 PROTACs, Figure 1; cited from earlier work
MOLM-13 = system: MOLM-13; parameters: method as in PMID 30427680, PMID 34959180, PMID 34694800, PMID 36332882, PMID 38655686; details: reported FLT3 PROTACs, Figure 1; cited from earlier work
MOLM-14 = system: MOLM-14; parameters: method as in PMID 36518702; details: reported FLT3 PROTAC, Figure 1; cited from earlier work
FLT3-ITD [1] = target: T1, FLT3-ITD (Homo sapiens, UniProt P36888, INS600HVDFREYEYD); test: Phosphorylation of FLT3-ITD, immunoblot in MV4-11 cells; type: cell-based; parameters: We treated MV4-11 cells with the synthesized degraders of FLT3; endogenous in cells; host or cells: MV4-11
T1 sequence (P36888 with tags, fused parts or gaps INS600HVDFREYEYD): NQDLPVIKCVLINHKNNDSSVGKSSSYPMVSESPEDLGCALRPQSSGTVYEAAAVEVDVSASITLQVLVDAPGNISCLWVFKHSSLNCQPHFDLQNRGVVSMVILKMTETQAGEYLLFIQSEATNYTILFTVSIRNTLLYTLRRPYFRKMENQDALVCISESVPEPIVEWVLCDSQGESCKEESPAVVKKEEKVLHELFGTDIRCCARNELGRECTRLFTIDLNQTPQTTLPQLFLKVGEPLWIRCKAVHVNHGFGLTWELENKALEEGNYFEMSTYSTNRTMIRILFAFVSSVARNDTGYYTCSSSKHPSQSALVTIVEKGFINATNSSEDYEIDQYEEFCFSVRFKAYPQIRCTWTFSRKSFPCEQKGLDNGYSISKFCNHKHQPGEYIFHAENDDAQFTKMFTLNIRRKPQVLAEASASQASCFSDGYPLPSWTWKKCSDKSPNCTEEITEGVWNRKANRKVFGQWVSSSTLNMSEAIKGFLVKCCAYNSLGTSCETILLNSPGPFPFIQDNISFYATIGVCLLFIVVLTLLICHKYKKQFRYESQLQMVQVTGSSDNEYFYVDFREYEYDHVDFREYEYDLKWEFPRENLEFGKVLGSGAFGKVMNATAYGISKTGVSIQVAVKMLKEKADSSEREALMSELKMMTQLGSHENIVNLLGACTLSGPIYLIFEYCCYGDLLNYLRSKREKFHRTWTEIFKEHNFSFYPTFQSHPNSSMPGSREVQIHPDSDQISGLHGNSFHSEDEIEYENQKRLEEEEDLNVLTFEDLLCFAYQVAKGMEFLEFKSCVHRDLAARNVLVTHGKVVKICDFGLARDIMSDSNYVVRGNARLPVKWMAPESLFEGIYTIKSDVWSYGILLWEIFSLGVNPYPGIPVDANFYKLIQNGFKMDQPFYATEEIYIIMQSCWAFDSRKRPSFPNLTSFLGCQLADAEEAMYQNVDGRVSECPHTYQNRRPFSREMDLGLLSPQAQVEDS
From the text: We aimed to delineate if the FLT3 inhibitor part of MA191 acts as a MAPK14 inhibitor in MV4-11 cells. We used the phosphorylation of FLT3-ITD and the phosphorylation of MAPK14 as markers for their activation. […] This finding is consistent with the detection of MAPK14 in the kinase selectivity profiling approach (Figure 3; MAPK14 is termed p38α therein).
(§1) Figure 7 Targeting MAPK14 augments anti-leukemic effects of an inhibition of FLT3-ITD. (a) The graphs show the mRNA levels of MAPK14 in leukemia cells and normal blood cells. […] All immunoblots show data from at least two independent repetitions. (c) Model for how inhibition of various signaling pathways affects AML cells (red, cytoplasm, blue, nucleus).

MAPK14 [2] = target: T2, MAPK14 (Homo sapiens, UniProt Q16539); test: Phosphorylation of MAPK14, immunoblot in MV4-11 cells; type: cell-based; parameters: endogenous in cells; host or cells: K562, RS4-11, MV4-11, MOLM-13 (A17); MV4-11 (A20)
T2 sequence (Q16539 2-360 limits assumed): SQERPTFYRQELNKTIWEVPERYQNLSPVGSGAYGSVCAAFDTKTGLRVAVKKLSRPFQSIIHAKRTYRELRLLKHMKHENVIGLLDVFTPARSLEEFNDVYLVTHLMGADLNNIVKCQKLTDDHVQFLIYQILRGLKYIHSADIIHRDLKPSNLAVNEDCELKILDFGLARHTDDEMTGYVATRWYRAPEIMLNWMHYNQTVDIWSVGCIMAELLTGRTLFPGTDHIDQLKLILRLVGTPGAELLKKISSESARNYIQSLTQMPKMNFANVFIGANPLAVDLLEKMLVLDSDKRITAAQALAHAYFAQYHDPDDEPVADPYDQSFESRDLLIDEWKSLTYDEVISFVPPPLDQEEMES

MAPK14 [3] = target: T2, MAPK14; test: MAPK14 degradation, immunoblot in leukemia cells; type: cell-based; parameters: endogenous in cells; host or cells: K562, RS4-11, MV4-11, MOLM-13 (A17); MV4-11 (A20); details: K562, RS4-11, MV4-11 and MOLM-13 cells; 50 nM MA191, 24 h
FLT3-ITD [4] = test: KINOMEscan binding assay
Protocol: Binding to FLT3-ITD was determined using the KINOMEscan^TM assay (Eurofins DiscoverX Corporation, San Diego, CA, USA)
Kinase-tagged T7 phage strains were prepared in an E. coli host derived from the BL21 strain. E. coli were grown to log-phase and infected with T7 phage and incubated with shaking at 32 °C until lysis. The lysates were centrifuged and filtered to remove cell debris. The remaining kinases were produced in HEK-293 cells and subsequently tagged with DNA for qPCR detection. […] The liganded beads were blocked with excess biotin and washed with blocking buffer (SeaBlock (Pierce), 1% BSA, 0.05% Tween 20, 1 mM DTT) to remove unbound ligand and to reduce non-specific binding. […] The compounds were then diluted directly into the assays such that the final concentration of DMSO was 0.9%. All reactions performed in polypropylene 384-well plate. Each was a final volume of 0.02 mL. […] The kinase concentration in the eluates was measured by qPCR.

FLT3-ITD [5] = target: T1, FLT3-ITD; test: FLT3-ITD degradation, immunoblot in MV4-11 cells; details: MV4-11 cells, 50 nM, 24 h
HL-60 = system: HL-60; parameters: method as in PMID 36332882; details: reported FLT3 PROTAC, Figure 1; cited from earlier work
CSNK1D = CSNK1D (Homo sapiens, UniProt P48730); test: NanoBRET CELLinib128
Chain of CSNK1D (P48730 whole entry): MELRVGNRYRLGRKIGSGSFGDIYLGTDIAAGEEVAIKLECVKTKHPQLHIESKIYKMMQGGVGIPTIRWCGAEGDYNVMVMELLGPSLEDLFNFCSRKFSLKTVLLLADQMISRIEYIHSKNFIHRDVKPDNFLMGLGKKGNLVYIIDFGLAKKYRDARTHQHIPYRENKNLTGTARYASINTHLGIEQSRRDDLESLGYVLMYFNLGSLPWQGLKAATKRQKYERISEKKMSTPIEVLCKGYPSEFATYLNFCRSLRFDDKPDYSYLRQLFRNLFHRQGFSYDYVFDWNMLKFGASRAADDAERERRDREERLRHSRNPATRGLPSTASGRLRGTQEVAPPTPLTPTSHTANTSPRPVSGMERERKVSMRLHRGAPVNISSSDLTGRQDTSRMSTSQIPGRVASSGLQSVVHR

caspase-3 = test: Caspase-3 cleavage, immunoblot in MV4-11 cells; type: cell-based, human
From the text: The usefulness of a combined inhibition of FLT3-ITD and MAPK14 through depletion may also be effective against leukemia stem cells that require cytokines signaling through MAPK14 [48]. Further studies are necessary to test this idea.
as §1

Row | Structure (SMILES) | IC50 (MV4-11) [nM] | IC50 (MOLM-13) [nM] | other results
1 | Cc1c(NC(=O)CN2CCN(CC3CCN(c4ccc5c(c4)C(=O)N(C4CCC(=O)NC4=O)C5=O)CC3)CC2)c[nH]c1/C=C1\C(=O)Nc2ccc(F)cc21 (stereo not shown) [A20] | 39.9 ± 3.4 | 170 ± 3.4 | 
2 | CCc1nc(C(N)=O)c(Nc2ccc(N3CCC(N4CCN(CC5CCN(C(=O)CCOCCOCCNc6cccc7c6C(=O)N(C6CCC(=O)NC6=O)C7=O)CC5)CC4)CC3)c(OC)c2)nc1NC1CCOCC1 (stereo not shown) [CRBN(FLT3)-8] | 0.9 |  | IC50 (MOLM-14): 2.8 nM
3 | CCc1nc(C(N)=O)c(Nc2ccc(N3CCC(N4CCN(C(=O)COc5cccc6c5CN(C5CCC(=O)NC5=O)C6=O)CC4)CC3)c(OC)c2)nc1NC1CCOCC1 (stereo not shown) [LWY713] | 1.5 |  | 
4 | Cc1ncsc1-c1ccc([C@H](C)NC(=O)[C@H]2C[C@H](O)CN2C(=O)[C@@H](NC(=O)[C@H]2CC[C@H](C(=O)N3CCN(CCNC(=O)c4cc(Oc5ccc(NC(=O)Nc6cc(C(C)(C)C)on6)cc5)ccn4)CC3)CC2)C(C)(C)C)cc1 [MA225, 4-(4-(3-(5-(tert-Butyl)isoxazol-3-yl)ureido)phenoxy)-N-(2-(4-(trans-4-(((S)-1-((2R,4S)-4-hydroxy-2-(((S)-1-(4-(4-methylthiazol-5-yl)phenyl)ethyl)carbamoyl)pyrrolidin-1-yl)-3,3-dimethyl-1-oxobutan-2-yl)carbamoyl)cyclohexanecarbonyl)piperazin-1-yl)ethyl)picolinamide] |  |  | phosphorylation of FLT3-ITD (FLT3-ITD [1]): inhibited the phosphorylation of FLT3-ITD; phosphorylated MAPK14 (p-MAPK14) (MAPK14 [2]): weak inhibition of phosphorylated MAPK14; MAPK14 protein level, immunoblot (MAPK14 [3]): did not reduce the levels of FLT3-ITD and MAPK14; % FLT3-ITD Binding at 1 µM (FLT3-ITD [4]): 97 ± 2%; % FLT3-ITD Degradation at 50 nM (FLT3-ITD [5]): No effect; FLT3-ITD degradation (FLT3-ITD [5]): did not reduce the levels of FLT3-ITD and MAPK14
5 | Cc1ncsc1-c1ccc(CNC(=O)[C@@H]2C[C@@H](O)CN2C(=O)[C@@H](NC(=O)COCCOCCNC(=O)c2c(C)[nH]c(/C=C3\C(=O)Nc4ccc(F)cc43)c2C)C(C)(C)C)cc1 [PROTAC5] |  |  | IC50 (HL-60): 2900 ± 1500 nM
6 | Cc1ncsc1-c1ccc(CNC(=O)[C@@H]2C[C@@H](O)CN2C(=O)[C@@H](NC(=O)CCOCCOCCOc2ccc3c(c2)sc2nc(-c4ccc(NC(=O)Nc5cc(C(C)(C)C)on5)cc4)cn23)C(C)(C)C)cc1 [Quizaritinib-based PROTAC] | 0.6 ± 0.08 |  | 
7 | CN[C@@H]1C[C@H]2O[C@@](C)([C@@H]1OC)n1c3ccccc3c3c4c(c5c6ccccc6n2c5c31)C(=O)NC4 [Staurosporine] |  |  | EC50 (CSNK1D): 10.4 µM
8 | CCc1nc(C(N)=O)c(Nc2ccc(N3CCN(CCC4CCN(CC(=O)N[C@H](C(=O)N5C[C@H](O)C[C@H]5C(=O)N[C@@H](C)c5ccc(-c6scnc6C)cc5)C(C)(C)C)CC4)CC3)c(OC)c2)nc1NC1CCOCC1 [Z29] | 5.5 ± 0.2 | 8 ± 0.2 | 
9 | CNC(=O)c1cc(Cl)ccn1 [compound 1] | 18.7 ± 2.1 | 10.1 ± 1 | 
10 | Nc1ccc(O)cc1 [compound 2] | 9.2 ± 1 | 9.5 ± 0.7 | 
11 | Cc1ccc(-n2nc(C(C)(C)C)cc2NC(=O)Nc2ccc(OCCN3CCOCC3)c3ccccc23)cc1 [doramapimod, reference compound] |  |  | caspase-3 cleavage (caspase-3): did not induce caspase-3 cleavage; phosphorylation of FLT3-ITD (FLT3-ITD [1]): did not affect FLT3-ITD and its activity
